According to US20170253581A1, “SUBSTITUTED HETEROCYCLES AS c-MYC TARGETING AGENTS” (Northwestern University, priority 2016, published 2017):

Molecular target: Myc/Max binding to DNA (Homo sapiens, UniProt P01106)
Assay: Electrophoretic mobility shift assay (EMSA) of Myc/Max binding to DNA
Assay type: biochemical
Details: EMSA; for remaining activity at 100 µM / Bound DNA (%) (100uM): 100 uM test compound; for remaining activity at 100 µM: read-out: Bound DNA (%) (100uM); for remaining activity at 50 µM: read-out: Bound DNA (%) (50uM)
Description: We also tested our best hit compound Min9 (NUCC-0176234) and newly synthesized analogs for effects of these compounds on Myc/Max binding to DNA in electrophoretic mobility shift assays (EMSAs). (See FIG. 5a and FIG. 5b). We expected the active compounds to impair Myc/Max binding to DNA. Several strucutural analogs of Min9 were tested over multiple doses for inhibiting Myc-DNA binding and we observed a dose-dependent inhibition. (See FIG. 5c).
Additional compounds were synthesized and tested in the EMSA assay at concentrations of 200 μM, 100 μM, and 50 μM.

Myc/Max binding to DNA, sequence (P01106 whole entry): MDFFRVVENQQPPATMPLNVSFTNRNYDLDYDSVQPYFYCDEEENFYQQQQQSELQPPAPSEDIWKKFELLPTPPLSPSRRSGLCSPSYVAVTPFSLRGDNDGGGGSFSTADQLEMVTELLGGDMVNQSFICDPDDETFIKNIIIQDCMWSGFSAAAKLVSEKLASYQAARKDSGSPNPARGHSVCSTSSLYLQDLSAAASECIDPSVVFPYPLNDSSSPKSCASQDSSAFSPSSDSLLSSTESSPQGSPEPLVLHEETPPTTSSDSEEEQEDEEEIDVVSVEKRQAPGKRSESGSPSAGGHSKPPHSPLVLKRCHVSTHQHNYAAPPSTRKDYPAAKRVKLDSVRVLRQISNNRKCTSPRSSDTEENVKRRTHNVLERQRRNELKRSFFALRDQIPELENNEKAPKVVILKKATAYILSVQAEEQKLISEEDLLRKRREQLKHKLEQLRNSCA

Structure (SMILES)	remaining activity at 100 µM [%]	Bound DNA (%) (100uM)	remaining activity at 50 µM (50 uM test compound) [%]	Bound DNA (%) (50uM) (50 uM test compound)
C/C(=N\N)c1ccc(-c2c(-c3ccc(OCc4ccc(Cl)cc4)cc3O)n[nH]c2C(F)(F)F)cc1 [compound 0198395]	109			
CN/N=C(\C)c1ccc(-c2c(C(F)(F)F)nn(C)c2-c2ccc(OCc3ccc(Cl)cc3)cc2O)cc1 [compound 0198396]	56			
CN/N=C(\C)c1ccc(-c2c(-c3ccc(OCc4ccc(Cl)cc4)cc3O)nn(C)c2C(F)(F)F)cc1 [compound 0198397]	82			
N#Cc1cccc(-c2c(-c3ccc(OCc4ccc(Cl)cc4)cc3O)n[nH]c2C(F)(F)F)c1 [compound 0198398]	3			
Cn1nc(C(F)(F)F)c(-c2cccc(C#N)c2)c1-c1ccc(OCc2ccc(Cl)cc2)cc1O [compound 0198399]	2			
Cn1nc(-c2ccc(OCc3ccc(Cl)cc3)cc2O)c(-c2cccc(C#N)c2)c1C(F)(F)F [compound 0198400]	48			
NC(=O)c1cccc(-c2c(-c3ccc(OCc4ccc(Cl)cc4)cc3O)n[nH]c2C(F)(F)F)c1 [compound 0198401]	77			
Cn1nc(C(F)(F)F)c(-c2cccc(C(N)=O)c2)c1-c1ccc(OCc2ccc(Cl)cc2)cc1O [compound 0198402]	57			
C/C(=N\N)c1cccc(-c2c(-c3ccc(OCc4ccc(Cl)cc4)cc3O)n[nH]c2C(F)(F)F)c1 [compound 0198403]	44			
CN/N=C(\C)c1cccc(-c2c(C(F)(F)F)nn(C)c2-c2ccc(OCc3ccc(Cl)cc3)cc2O)c1 [compound 0198404]	67			
CN/N=C(\C)c1cccc(-c2c(-c3ccc(OCc4ccc(Cl)cc4)cc3O)nn(C)c2C(F)(F)F)c1 [compound 0198405]	89			
CCc1ccc(Oc2c(-c3ccc(O)cc3O)n[nH]c2C(F)(F)F)cc1 [compound 0198406]	0			
Cn1nc(C(F)(F)F)c(Br)c1-c1ccc(OCc2ccc(Cl)cc2)cc1O [compound 0198407]	13			
Cn1nc(-c2ccc(OCc3ccc(Cl)cc3)cc2O)c(Br)c1C(F)(F)F [compound 0198408]	136			
Cn1nc(C(F)(F)F)c(-c2ccc(C(N)=O)cc2)c1-c1ccc(OCc2ccc(Cl)cc2)cc1O [compound 0198409]	69			
Cn1nc(C(F)(F)F)c(-c2ccccc2OC(F)(F)F)c1-c1ccc(OCc2ccc(Cl)cc2)cc1O [compound 0198410]	44			
CCc1ccc(Oc2c(-c3ccc(O)cc3O)nn(C)c2C(F)(F)F)cc1 [compound 0198411]		30		
Cn1nc(C(F)(F)F)cc1-c1ccc(OCc2ccc(Cl)cc2)cc1O [compound 0198412]	91			
CCOC(=O)c1[nH]nc(-c2ccc(OCc3ccc(Cl)cc3)cc2O)c1-c1ccc(C#N)cc1 [compound 0200489]	100		99	
Oc1cc(OCc2ccc(Cl)cc2)ccc1-c1n[nH]c(C(F)(F)F)c1Cc1ccccc1Cl [compound 0200490]	99		97	

Structure (SMILES)	remaining activity at 100 µM [%]	Bound DNA (%) (100uM)	remaining activity at 50 µM (50 uM test compound) [%]	Bound DNA (%) (50uM) (50 uM test compound)
Oc1cc(Nc2ccc(Cl)cc2)ccc1-c1cc(C(F)(F)F)[nH]n1 [compound 0200491]		0	73	
Cn1nc(-c2ccc(Nc3ccc(Cl)cc3)cc2O)cc1C(F)(F)F [compound 0200492]	24		92	
Oc1cc(NCc2ccc(Cl)cc2)ccc1-c1cc(C(F)(F)F)[nH]n1 [compound 0200493]	42		92	
Cn1nc(-c2ccc(NCc3ccc(Cl)cc3)cc2O)cc1C(F)(F)F [compound 0200494]	89		99	
Oc1ccc(-c2n[nH]c(C(F)(F)F)c2-c2cc(C(F)(F)F)cc(C(F)(F)F)c2)c(O)c1 [compound 0200495]	8		86	
COc1ccc(-c2c(-c3ccc(O)cc3O)n[nH]c2C(F)(F)F)cc1OC [compound 0200496]	81		98	
Nc1ccc(-c2cc(C(F)(F)F)[nH]n2)c(O)c1 [compound 0200497]	109		107	
Cn1nc(-c2ccc(N)cc2O)cc1C(F)(F)F [compound 0200498]	101		100	
Oc1cc(OCc2ccc(Cl)cc2)ccc1-c1cc(C(F)(F)F)n(Cc2ccccc2)n1 [compound 0200499]	100		109	
Oc1cc(OCc2ccc(Cl)cc2)ccc1-c1cc(C(F)(F)F)nc(-c2cccc(C(F)(F)F)c2)n1 [compound 0200500]	109		100	
Oc1cc(OCc2ccc(Cl)cc2)ccc1-c1cc(C(F)(F)F)nc(-c2cc(C(F)(F)F)cc(C(F)(F)F)c2)n1 [compound 0200501]	79		91	
Nc1nc(-c2ccc(OCc3ccc(Cl)cc3)cc2O)cc(C(F)(F)F)n1 [compound 0200502]	94		64	
Oc1cc(OCc2ccc(Cl)cc2)ccc1-c1cc(C(F)(F)F)nc(-c2ccc(F)cc2)n1 [compound 0200503]	91		89	
N#Cc1cccc(-c2c(-c3ccc(OCc4ccc(Cl)cc4)cc3O)n[nH]c2C(N)=O)c1 [compound 0200557]	53		46	
Cn1nc(-c2ccc(OCc3ccc(Cl)cc3)cc2O)c(-c2cccc(C#N)c2)c1C(N)=O [compound 0200558]	9		20	
Oc1cc(Nc2ccc(F)c(F)c2)ccc1-c1cc(C(F)(F)F)[nH]n1 [compound 0200559]	39		76	
Cn1nc(-c2ccc(Nc3ccc(F)c(F)c3)cc2O)cc1C(F)(F)F [compound 0200560]	56		91	
Oc1cc(Nc2ccc3c(c2)OCO3)ccc1-c1cc(C(F)(F)F)[nH]n1 [compound 0200561]	59		91	
Cn1nc(-c2ccc(Nc3ccc4c(c3)OCO4)cc2O)cc1C(F)(F)F [compound 0200562]	77		101	
NC(=O)c1ccc(Nc2ccc(-c3cc(C(F)(F)F)[nH]n3)c(O)c2)cc1 [compound 0200563]	92		101	

Structure (SMILES)	remaining activity at 100 µM [%]	Bound DNA (%) (100uM)	remaining activity at 50 µM (50 uM test compound) [%]	Bound DNA (%) (50uM) (50 uM test compound)
Cn1nc(-c2ccc(Nc3ccc(C(N)=O)cc3)cc2O)cc1C(F)(F)F [compound 0200564]	93		103	
Oc1cc(Nc2ccccn2)ccc1-c1cc(C(F)(F)F)[nH]n1 [compound 0200565]	112		112	
Cn1nc(-c2ccc(Nc3ccccn3)cc2O)cc1C(F)(F)F [compound 0200566]	118		109	
CN1CCN(c2ccc(-c3cc(C(F)(F)F)[nH]n3)c(O)c2)CC1 [compound 0200567]	115		117	
CN1CCN(c2ccc(-c3cc(C(F)(F)F)n(C)n3)c(O)c2)CC1 [compound 0200568]	93		109	
Oc1cc(Nc2ccc(-n3ccnc3)cc2)ccc1-c1cc(C(F)(F)F)[nH]n1 [compound 0200569]	91		89	
Oc1cccc(OCc2ccc(Cl)cc2)c1-c1cc(C(F)(F)F)n[nH]1 [compound 0200570]	83		85	
N#Cc1cccc(-c2c(C(F)(F)F)n[nH]c2-c2cc(OCc3ccc(Cl)cc3)ccc2O)c1 [compound 0200571]	72		87	
Cc1ccc(-c2c(C(F)(F)F)n[nH]c2-c2cc(OCc3ccc(Cl)cc3)ccc2O)cc1 [compound 0200572]	78		85	
Oc1ccc(OCc2ccc(Cl)cc2)cc1-c1cc(C(F)(F)F)n[nH]1 [compound 0200573]	102			
Oc1ccccc1-c1cc(C(F)(F)F)n[nH]1 [compound 0200574]	107			
Oc1ccc(OCc2ccc(Cl)cc2)cc1-c1[nH]nc(C(F)(F)F)c1-c1ccc(F)cc1 [compound 0200575]	13			
Oc1ccc(OCc2ccc(Cl)cc2)cc1-c1[nH]nc(C(F)(F)F)c1-c1ccccc1Cl [compound 0200576]	3			
FC(F)(F)c1cc2n(n1)-c1ccccc1Oc1cc(OCc3ccc(Cl)cc3)ccc1-2 [compound 0200577]	100			
NC(=O)c1cc(-c2ccc(Nc3ccc(Cl)cc3)cc2O)n[nH]1 [compound 0200677]	102			
N#Cc1cc(-c2ccc(Nc3ccc(Cl)cc3)cc2O)n[nH]1 [compound 0200678]	104			
Oc1cc(Nc2ccc(Cl)cc2)ccc1-c1cc(C(F)(F)F)[nH]n1 [compound 0200679]		38		79
CCc1ccc(Oc2c(-c3ccc(Nc4ccc(Cl)cc4)cc3O)n[nH]c2C(F)(F)F)cc1 [compound 0200680]	40		96	
CCc1ccc(Oc2c(-c3ccc(Oc4ccc(Cl)cc4)cc3O)n[nH]c2C(F)(F)F)cc1 [compound 0200681]	8		90	
